Here are results for 19 compounds from US20240051956A1, “SOS1 INHIBITORS AND USES THEREOF” (QILU REGOR THERAPEUTICS INC., priority 2020, published 2024).

Series [1] concerns NCI-H358. The series can be described thus: Cell proliferation assay, 3D, CellTiter-Glo 3D. The format is cell-based, human. The following applies: for IC50: Homo sapiens, read-out: anit-prolif. H358 IC50. The method, then:
b. Cell Proliferation Assay
Low IC50 values are indicative of high potency of the compounds in this assay setting.
Cell proliferation assay is performed in three-dimensional (3D) ultra-low conditions with the human cell line NCI-H358, a human non-small cell lung cancer (NSCLC) cell line with a KRAS G12C mutation.
• 96-well Clear Round Bottom Ultra-Low Attachment Microplate (Corning, Cat. 7007) • 96-well Flat Clear Bottom White Polystyrene TC-treated Microplates (Corning, Cat. 3610) • RPMI-1640 Medium (Gibco, Cat. 22400105) • Fetal Bovine Serum (FBS) (Gibco, Cat. 10099141C) • 0.25% Trypsin-EDTA (Gibco, Cat. 25200056) • Penicillin-Streptomycin (Gibco, Cat. 15140122) • CellTiter-Glo 3D Cell Viability Assay (Promega, Cat. G9683)
NCI-H358 cells (ATCC, Cat. CRL-5807) are grown in cell culture flasks using RPMI medium supplemented with 10% FBS. Cells are incubated at 37° C. and 5% C02 in a humidified atmosphere, with sub-cultivation performed twice a week. Cells are trypsinized, counted and plated in 96-well ultra-low adhesion plates for 3D cell viability determination. The day after plating, serial dilutions of SOS1 inhibitor compounds are made using Tecan D300e Digital Dispenser to evaluate a concentration-dependent effect on cell viability. The concentration of the test compounds covers a range between 5 μM and 0.76 nM with serial 1:3 dilutions in 9 concentrations. 0.5 μL serial dilutions of the compounds are added in duplicates. 3 days later, the CellTiter-Glo 3D Cell Viability Assay is used to measure cell viability effects of SOS1 inhibitor compounds in 3D format. Luminescent intensity is determined using Envision (PerkinElmer). Data is analyzed and IC50 values are calculated using GraphPad Prism.

The target of series [2] is SOS1 and KRAS G12D (Homo sapiens (Human), UniProt Q07889). The series can be described thus: KRAS::SOS1 AlphaScreen Binding Assay. The settings on record: SOS1 (564-1049), KRAS G12D (1-169), GDP. From the text: a. KRAS::SOS1 AlphaScreen Binding Assay
Low IC50 values of given compounds are indicative of high potency of the SOS1 inhibitor compounds in this assay setting.
• GST-TEV-SOS1 (564-1049) and His-TEV-Avi-KRAS G12D (1-169) are purchased from Viva Biotech (Shanghai) Ltd. • GDP (Sigma, Cat. G7127) • AlphaLISA Glutathione Acceptor Beads (PerkinElmer, Cat. AL109C) • AlphaScreen Streptavidin Donor Beads (PerkinElmer, Cat. 6760002S) • Assay plates: ProxiPlate-384 Plus, White 384-shallow well Microplate (PerkinElmer, Cat. 6008280)
SOS1 inhibitor compounds are diluted to a final start concentration of […]. Serial dilutions of compounds are made using Tecan D300e Digital Dispenser in 9 concentrations with serial 1:3 dilutions. 100 nL of compound solution is transferred to the 384-well assay plate per well, covering a range between 1 μM and 0.15 nM minimum in duplicate. 10 nM (final assay concentration) KRAS G12D, 5 nM (final assay concentration) SOS1 and 10 μM (final assay concentration) GDP are mixed in assay buffer, and 5 μL of KRAS::SOS1 GDP mix is added into the assay plate to the 100 nL of compound solution (final dilution in the assay 1:100, final DMSO concentration 1%). After a 30 min incubation, AlphaLISA Glutathione Acceptor Beads and AlphaScreen Streptavidin Donor Beads are mixed in assay buffer at a concentration of 5 µg/mL (final assay concentration), and 5 μL of bead mix is added into the assay plate. Plates are kept at room temperature in a darkened incubator for 3 h. After a 3 h incubation, the signal is determined using Envision (PerkinElmer). The excitation wavelength is 680 nm, and emission 615 nm. IC50 values are calculated and analyzed using GraphPad Prism.

The nature of series [3]: Human liver microsomal stability. The format is in vitro ADME. The following applies: for half-life: human liver microsomes, read-out: Human liver microsomal stability, T1/2; for stability in human liver microsomal assay: in words, compound I-18 vs present compounds.
[4] abbreviates: 72 h, NCI-H358 (KRAS G12C), 3D ultra-low attachment, 3 days.

Read-outs that look alike come from different tables or passages of the source.

Sequence of SOS1 and KRAS G12D (Q07889 564-1049, stated change not applied): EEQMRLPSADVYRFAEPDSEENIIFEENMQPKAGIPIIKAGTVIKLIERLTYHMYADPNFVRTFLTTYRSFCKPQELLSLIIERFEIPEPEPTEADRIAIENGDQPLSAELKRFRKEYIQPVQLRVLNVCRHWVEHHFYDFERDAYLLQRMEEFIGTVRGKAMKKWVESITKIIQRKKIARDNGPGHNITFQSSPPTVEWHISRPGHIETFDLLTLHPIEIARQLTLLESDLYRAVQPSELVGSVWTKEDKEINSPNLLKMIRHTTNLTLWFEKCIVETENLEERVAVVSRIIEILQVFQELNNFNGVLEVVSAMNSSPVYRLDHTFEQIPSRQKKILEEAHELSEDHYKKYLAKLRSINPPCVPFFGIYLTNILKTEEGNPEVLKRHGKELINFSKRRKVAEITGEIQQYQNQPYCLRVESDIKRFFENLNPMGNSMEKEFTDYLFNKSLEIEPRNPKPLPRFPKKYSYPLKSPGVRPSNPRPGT

For the compound `Cc1nc(N[C@H](C)c2cccc(C(F)F)c2F)c2cn(N3CCOCC3)c(=O)c(-c3ccc(S(C)(=O)=O)nc3)c2n1` [Example 61], the IC50 is at most 100 nM in series [1] (setting [4]); 31 nM in series [1] (NCI-H358, H358 cells); at most 15 nM in series [2]. Besides, the half-life in series [3] was over 1000 min. Further, in series [3], the “stability in human liver microsomal assay” value (“stability” for short) was “dramatically improved”.

Consider `Cc1nc(N[C@H](C)c2cccc(C(F)F)c2F)c2cn(C3CCOCC3)c(=O)cc2n1` [Example I-18, reference compound], for which the IC50 in series [1] (NCI-H358, H358 cells) came out at 164 nM. Also, the “activity in H358 cellular assay” value in series [1] (in words, compound I-18 vs present compounds) was “weaker activity”. In series [3], the half-life is 3 min and the “stability” value is on record as “very poor stability”.

`Cc1nc(N[C@H](C)c2cccc(C(F)(F)F)c2C)c2cn(N3CCOCC3)c(=O)c(F)c2n1` [Example 30]: the IC50 was at most 100 nM in series [1] (setting [4]); 28 nM in series [1] (NCI-H358, H358 cells); at most 15 nM in series [2]. For the same compound, the half-life in series [3] worked out at 190 min. Moreover, the “stability” value in series [3] is “dramatically improved”.

As to `Cc1nc(N[C@H](C)c2cccc(C(F)F)c2F)c2cn(N3CCOCC3)c(=O)c(F)c2n1` [Example 29, (R)-4-((1-(3-(difluoromethyl)-2-fluorophenyl)ethyl)amino)-8-fluoro-2-methyl-6-morpholinopyrido[4,3-d]pyrimidin-7 (6H)-one], the IC50 is at most 100 nM in series [1] (setting [4]); 49 nM in series [1] (NCI-H358, H358 cells); at most 15 nM in series [2]. Besides, the half-life in series [3] worked out at 140 min. The “stability” value in series [3] is listed as “dramatically improved”.

With `Cc1nc(N[C@H](C)c2cccc(C(F)F)c2F)c2cn(N3CCOCC3)c(=O)c(-c3cnn(CCO)c3)c2n1` [Example 53], the IC50 in series [1] (setting [4]) is at most 100 nM; in series [1] (NCI-H358, H358 cells), 60 nM; in series [2] it was at most 15 nM. Besides, the half-life in series [3] stood at 44 min. Moreover, the “stability” value in series [3] is “dramatically improved”.

Regarding `Cc1nc(N[C@H](C)c2cccc(C(F)F)c2F)c2cn(N3CCOCC3)c(=O)c(-c3ccc(C(F)(F)F)nc3)c2n1` [Example 60], the concentration for half-maximal inhibition (IC50) was at most 100 nM in series [1] (setting [4]) and 15 to 150 nM in series [2].

`Cc1nc(N[C@H](C)c2cccc(C(F)F)c2F)c2cn(N3CCOCC3)c(=O)c(-c3ccc4nccn4c3)c2n1` [Example 73]: the half-inhibitory concentration (IC50) in series [1] (setting [4]) is at most 100 nM; in series [2], at most 15 nM.

Regarding `Cc1nc(N[C@H](C)c2cccc(C(F)F)c2F)c2cn(N3CCOCC3)c(=O)cc2n1` [Example 1, 4-[[(1R)-1-[3-(difluoromethyl)-2-fluoro-phenyl]ethyl]amino]-2-methyl-6-morpholino-pyrido[4,3-d]pyrimidin-7-one], the half-inhibitory concentration (IC50) in series [1] (setting [4]) is at most 100 nM; in series [1] (NCI-H358, H358 cells), 40 nM; in series [2], at most 15 nM. The half-life in series [3] came out at 84 min. In addition, the “stability” value in series [3] is given as “dramatically improved”.

`Cc1nc(N[C@H](C)c2cccc(C(F)F)c2F)c2cn(N3CCN(C(=O)CO)CC3)c(=O)cc2n1` [Example 13, 4-[[(1R)-1-[3-(difluoromethyl)-2-fluoro-phenyl]ethyl]amino]-6-[4-(2-hydroxyacetyl)piperazin-1-yl]-2-methyl-pyrido[4,3-d]pyrimidin-7-one]: the IC50 was 500 to 1000 nM in series [1] (setting [4]) and at most 15 nM in series [2].

Consider `C=C(C)c1c(=O)n(N2CCOCC2)cc2c(N[C@H](C)c3cccc(C(F)F)c3F)nc(C)nc12` [Example 56], for which the IC50 in series [1] (setting [4]) is 100 to 500 nM; in series [2], at most 15 nM.

`Cc1nc(N[C@H](C)c2cccc(C(F)F)c2F)c2cn(N3CCOCC3)c(=O)c(C)c2n1` [Example 44]: the IC50 in series [1] (setting [4]) is at most 100 nM; in series [2], at most 15 nM.

Regarding `Cc1nc(N[C@H](C)c2cccc(C(F)(F)F)c2C)c2cn(N3CCOCC3)c(=O)c(-c3ccc(C#N)nc3)c2n1` [Example 76], the results for the half-inhibitory concentration (IC50) in series [1] (setting [4]) and in series [2] were 100 to 500 nM and 15 to 150 nM, respectively.

Take `Cc1nc(N[C@H](C)c2cccc(C(F)F)c2F)c2cn(N3CCOCC3)c(=O)c(-c3ccc(S(C)(=O)=O)cc3)c2n1` [Example 43, 4-[[(1R)-1-[3-(difluoromethyl)-2-fluoro-phenyl]ethyl]amino]-2-methyl-8-(4-methylsulfonylphenyl)-6-morpholino-pyrido[4,3-d]pyrimidin-7-one]: the 50% inhibitory concentration (IC50) in series [1] (setting [4]) is at most 100 nM; in series [1] (NCI-H358, H358 cells) it was 53 nM; in series [2] it was at most 15 nM. The half-life in series [3] was over 1000 min. Besides, the “stability” value in series [3] was “dramatically improved”.

For `Cc1nc(N[C@H](C)c2cccc(C(F)(F)F)c2C)c2cn(N3CCOCC3)c(=O)cc2n1` [Example 17, (R)-2-methyl-4-((1-(2-methyl-3-(trifluoromethyl)phenyl)ethyl)amino)-6-morpholinopyrido[4,3-d]pyrimidin-7(6H)-one], the IC50 in series [1] (setting [4]) is at most 100 nM; in series [1] (NCI-H358, H358 cells), 23 nM; in series [2], at most 15 nM. Moreover, the half-life in series [3] stood at 110 min. Besides, the “stability” value in series [3] is given as “dramatically improved”.

As for `CNCc1ccccc1-c1csc([C@@H](C)Nc2nc(C)nc3cc(=O)n(N4CCOCC4)cc23)c1` [Example 77, 2-methyl-4-[[(1R)-1-[4-[2-(methylaminomethyl)phenyl]-2-thienyl]ethyl]amino]-6-morpholino-pyrido[4,3-d]pyrimidin-7-one], the figures for the half-maximal inhibitory concentration (IC50) in series [1] (setting [4]) and in series [2] were 100 to 500 nM and at most 15 nM, respectively.

Take `Cc1nc(N[C@H](C)c2cccc(C(F)F)c2F)c2cn(N3CCCC3)c(=O)cc2n1` [Example 35]: the IC50 was 100 to 500 nM in series [1] (setting [4]) and at most 15 nM in series [2].

With `Cc1nc(N[C@H](C)c2cccc(C(F)F)c2F)c2cn(N3CCOCC3)c(=O)c(-c3ccc(F)c(C#N)c3)c2n1` [Example 63], the half-inhibitory concentration (IC50) in series [1] (setting [4]) was in the range of 500 to 1000 nM; in series [2], 15 to 150 nM.

In the case of `Cc1nc(N[C@H](C)c2cccc(C(F)F)c2F)c2cn(N3CCOCC3)c(=O)c(-c3ccc(P(C)(C)=O)nc3)c2n1` [Example 71], the IC50 is 100 to 500 nM in series [1] (setting [4]) and at most 15 nM in series [2].

With `Cc1nc(N[C@H](C)c2cccc(C(F)F)c2F)c2cn(-n3ccnc3)c(=O)c(F)c2n1` [Example 86], the 50% inhibitory concentration (IC50) in series [1] (setting [4]) fell in the range of 500 to 1000 nM; in series [2], 15 to 150 nM.
